Source: US12202790B2, “Sulfonamide derivatives having selective Nox inhibiting activity” (GLUCOX BIOTECH AB, priority 2018, dated 2025)
pIC50: −log10 of the molar value. Like-named read-outs stand apart in the source and are kept apart here.

How the values were obtained:
hNox4 = hNox4 (Homo sapiens (Human), UniProt Q9NPH5); assay: Amplex Red assay of intact Nox4 expressing HEK293 cells; assay type: cell-based
Protocol: (§1) HEK293 overexpressing Nox4 (CJ Nox4) cells were purchased from Redoxis, Lund, Sweden. HEK 293 cells expressing Nox5, Nox3 (HEK TRex) and CHO cells expressing Nox1, were a kind gift from Vincent Jaque Center Medical Universitaire, Geneva, Switzerland. Nox2 expressed in isolated neutrophils were isolated from whole blood (human), as previously described (Anvari E, et al., Free Radic Res 2015; 49:1308-1318).
HEK293 cells (CJ Nox4) were cultured in RPMI 1640 with Glutamax supplemented with FBS (10%), penicillin (100 U/ml) and streptomycin […] at 37° C. in air with 5% CO2. Every third passage 200 µg/ml neomycin were supplied in growth medium as selective agent.
(§2) Reactive oxygen produced in whole cells or in membrane preparation of Nox1, Nox3, Nox4, Nox5 and xanthine oxidase and glucose oxidase were determined using Amplex Red as detection probe of formed H2O2. Amplex Red (10-acetyl-3,7-dihydroxyphenoxazine) in combination with HRP and co-factors reacts with H2O2 in a 1:1 stoichiometry to form a highly fluorescent resorufin excitated at 544 nm producing emission at 590 nm.
(§3) Adherent cells (CHO, HEK) were collected by trypsinization, centrifuged, washed with HBSS, counted, and resuspended in HBSS. Cells were seeded in 96-well black flat bottom plates at a density of 50,000-100,000 cells/well. All compounds were dissolved in DMSO and concentrations ranging from 0.003 to 200 μM were tested in Nox cellular assays with a final concentration of DMSO of 1%. Cells were incubated at 37° C. with the compounds for 30 minutes before measurement. Cells expressing Nox1 and Nox2 were activated with the PKC activator PMA (0.1 μM). Nox5 was activated with the Ca2+ ionophore ionomycin (1 μM) and further enforced with PMA. The CJ HEK 293 cells overexpressed Nox4 constitutively. In the HTS screen HEK 293 TRex was used and tetracycline ([…]) was added 18 h before measurement to induce Nox4 expression. Production of hydrogen peroxide by Nox in intact cells was measured using Amplex Red fluorescence as described by Jaquet V, et al., Br J Pharmacol 2011; 164:507-520. Assay reagents including HRP ([…]) and Amplex Red (50 μM) were added to initiate production of hydrogen peroxide. Fluorescence was read in a fluorescence plate reader at 37° C. every minute between 30-60 minutes.

Nox1 = Nox1 (Homo sapiens (Human), UniProt Q9Y5S8); assay: Amplex Red assay of Nox1 expressing CHO cells; assay type: cell-based; design: key to IC50 Nox1: The sign “—” stands for “inactive”
Nox1, sequence (Q9Y5S8 whole entry): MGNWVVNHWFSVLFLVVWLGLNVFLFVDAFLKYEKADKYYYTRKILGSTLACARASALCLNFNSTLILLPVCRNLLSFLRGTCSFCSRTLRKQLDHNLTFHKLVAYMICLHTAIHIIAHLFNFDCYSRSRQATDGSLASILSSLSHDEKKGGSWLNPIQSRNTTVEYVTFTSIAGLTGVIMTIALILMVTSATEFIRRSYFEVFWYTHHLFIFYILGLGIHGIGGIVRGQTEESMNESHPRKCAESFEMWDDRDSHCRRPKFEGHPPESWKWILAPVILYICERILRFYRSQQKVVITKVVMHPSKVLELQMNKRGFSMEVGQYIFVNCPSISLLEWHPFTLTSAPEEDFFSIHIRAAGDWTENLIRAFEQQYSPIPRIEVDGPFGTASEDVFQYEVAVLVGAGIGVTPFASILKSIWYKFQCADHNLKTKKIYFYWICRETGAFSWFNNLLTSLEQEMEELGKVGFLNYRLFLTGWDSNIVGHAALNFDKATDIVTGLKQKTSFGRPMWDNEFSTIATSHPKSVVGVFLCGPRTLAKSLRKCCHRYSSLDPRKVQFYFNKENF
Nox1, sequence (P13498 2-195 partner): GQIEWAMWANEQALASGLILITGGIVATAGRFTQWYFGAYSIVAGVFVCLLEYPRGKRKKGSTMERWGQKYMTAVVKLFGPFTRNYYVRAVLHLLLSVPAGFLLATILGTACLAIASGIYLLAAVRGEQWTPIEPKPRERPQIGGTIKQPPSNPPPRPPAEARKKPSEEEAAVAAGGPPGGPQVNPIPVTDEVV
Protocol: as §1
CHO cells expressing Nox1 were cultured in DMEM 12 medium (DMEM/F12) supplemented with FBS (10%), penicillin (100 U/ml) and streptomycin (100 μg/ml) at 37° C. in air with 5% CO2.
as §2, §3

Nox2 = Nox2 (Homo sapiens (Human), UniProt P04839); assay: Nox2 inhibition in human neutrophils, isoluminol-dependent chemiluminescence; assay type: cell-based; design: key to IC50 Nox2: The sign “—” stands for “inactive”; settings: PMA stimulated human neutrophils
Nox2, sequence (P04839 2-570): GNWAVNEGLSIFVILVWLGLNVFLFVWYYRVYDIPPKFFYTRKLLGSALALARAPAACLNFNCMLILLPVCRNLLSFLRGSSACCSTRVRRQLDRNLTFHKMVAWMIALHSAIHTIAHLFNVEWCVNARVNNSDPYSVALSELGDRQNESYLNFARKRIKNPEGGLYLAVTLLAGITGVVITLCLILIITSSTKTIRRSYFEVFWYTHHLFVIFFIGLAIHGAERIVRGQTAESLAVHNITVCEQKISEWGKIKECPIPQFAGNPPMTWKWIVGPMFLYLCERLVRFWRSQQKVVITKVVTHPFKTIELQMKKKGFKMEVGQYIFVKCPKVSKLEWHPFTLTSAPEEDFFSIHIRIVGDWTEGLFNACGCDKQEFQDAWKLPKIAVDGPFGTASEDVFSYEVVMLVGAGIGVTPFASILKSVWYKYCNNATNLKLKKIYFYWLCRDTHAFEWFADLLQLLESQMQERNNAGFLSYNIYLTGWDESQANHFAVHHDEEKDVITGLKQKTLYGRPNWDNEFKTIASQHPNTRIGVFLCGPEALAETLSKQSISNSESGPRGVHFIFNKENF
Nox2, sequence (P13498 2-195 partner): as the sequence (P13498 2-195 partner) above
Protocol: as §1
Compounds of the invention were tested for selectivity against Nox2 in isolated neutrophils from whole blood (human), as previously described (Anvari E, et al., vide supra). Levels of ROS from PMA stimulated primary human neutrophils were measured using isoluminol-dependent chemiluminescence. […] The dye is excited by ROS and the light emitted when the excited molecules return to the ground state, relative to the amount of released ROS, is measured. This reaction is catalyzed and amplified by peroxidases. […] Compounds of the invention and GKT136901 were diluted at 4× working concentration and titrated from 100 μM to 0.006 μM in 1:4 steps as final concentrations. DPI was diluted in isoluminol buffer at 4× working concentration titrated from 10 μM to 0.0006 μM as final concentrations. PMA was diluted in isoluminol buffer at 4× working concentration for a final concentration of 30 ng/ml. […] Luminescence was detected using FluoStar Optima (BMG, Labtech). The isoluminol buffer was prepared immediately prior to addition to test plate. The buffer contained HRP fraction with or without PMA (30 ng/ml). Stock solutions at 6 μg/ml (PMA in HBSS), 3 μg/ml (PMA in DMSO) and 24 mM (DPI) were used and further diluted at the day of analysis to 4× working concentrations in HBSS with or without DMSO.

DPPH redox assay = assay: DPPH redox assay; design: key: The sign “—” stands for “inactive”; settings: redox activity control
Protocol: DPPH, a well-known sensitive chemical of monitoring reactions involving radicals described by Xiong Q, et al., Biol Pharm Bull 1996; 19:1580-1585, was used as control to exclude any redox active compound. DPPH was incubated with decreasing concentrations (200-0.003 μM) of compounds of the invention or prior art compound GKT136901 (as a positive control). The plate was kept in the dark for 60 min, after which the absorbance of the solution was measured at 518 nm.

[1] = Microsomal metabolic stability, human; assay type: in vitro ADME; settings: pooled liver microsomes, pH 7.4, read-out: Metab. stab, human t1/2
Protocol: (§4) The microsomal metabolic stability assay utilizes pooled human, or animal (mouse) species, liver microsomes with supplemented cofactor (NADPH) to primarily facilitate cytochrome P450 (CYP) reactivity against target compound. Test compound (1 μM incubation concentration) and microsomes (0.5 mg/ml incubation concentration) were diluted in 0.1 M phosphate buffer, pH 7.4, in a volume of 150 μl. The reaction was initiated with addition of NADPH (1 mM). The incubation times were 0, 5, 15, 40 min and the reaction was quenched, at each time point, by addition of 100 μl acetonitrile containing Warfarin as IS. The plate was then sealed, centrifuged and frozen at −20 C until LC-MS/MS analysis.

[2] = Microsomal metabolic stability, mouse; assay type: in vitro ADME; settings: pooled liver microsomes, pH 7.4, read-out: Metab. stab, mouse t1/2
Protocol: as §4

[3] = Plasma protein binding, human; assay type: in vitro ADME; settings: 10 μM in plasma, equilibrium dialysis 4 h, read-out: fu % human plasma protein
Protocol: (§5) Example compounds were incubated at 10 μM in plasma and then equilibrium dialysed for 4 h, using a rapid equilibrium device. Protein binding (fu %) was determined by LS/MS as previously described (Anvari E, et al., vide supra).

[4] = Plasma protein binding, mouse; assay type: in vitro ADME; settings: 10 μM in plasma, equilibrium dialysis 4 h, read-out: fu % mouse plasma protein
Protocol: as §5

[5] = read-out: IC50 on hNox4 in recombinant cells

hNox4, sequence (Q9NPH5 whole entry): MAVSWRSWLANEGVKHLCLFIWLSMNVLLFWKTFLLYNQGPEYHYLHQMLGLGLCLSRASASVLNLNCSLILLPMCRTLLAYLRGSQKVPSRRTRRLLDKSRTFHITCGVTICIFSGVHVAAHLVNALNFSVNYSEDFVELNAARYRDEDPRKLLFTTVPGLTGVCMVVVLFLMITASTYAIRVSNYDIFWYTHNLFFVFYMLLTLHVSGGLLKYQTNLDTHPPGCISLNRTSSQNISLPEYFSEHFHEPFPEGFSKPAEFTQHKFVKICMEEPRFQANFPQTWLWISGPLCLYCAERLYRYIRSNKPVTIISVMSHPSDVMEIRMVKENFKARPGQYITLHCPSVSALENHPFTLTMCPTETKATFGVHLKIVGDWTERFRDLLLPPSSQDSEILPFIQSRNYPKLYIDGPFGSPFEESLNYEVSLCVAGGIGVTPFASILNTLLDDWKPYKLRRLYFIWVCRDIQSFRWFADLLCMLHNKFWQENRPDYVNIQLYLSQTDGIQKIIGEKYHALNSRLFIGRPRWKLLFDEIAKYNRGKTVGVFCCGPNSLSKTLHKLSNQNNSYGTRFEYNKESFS
hNox4, sequence (P13498 2-195 partner): as the sequence (P13498 2-195 partner) above

Row | Compound | pIC50 (hNox4; read-out: IC50 Nox4) | IC50 Nox1 (Nox1) | IC50 DPPH (DPPH redox assay) | half-life at 1 μM [1] [min] | half-life at 1 μM [2] [min] | fraction unbound at 4 h, 10 μM [3] | fraction unbound at 4 h, 10 μM [4] | pIC50 (Nox2) | IC50 Nox2 (Nox2) | pIC50 (hNox4; [5])
1 | Cc1ccccc1C(F)CNS(=O)(=O)c1c(Cl)cc(Br)cc1Cl (racemic) [Example 35, 4-bromo-2,6-dichloro-N-[2-fluoro-2-(2-methylphenyl)ethyl]benzene-1-sulfonamide] | 5.77 | — | — | 11 to 13 | 6 to 20 | 0.0002 | 0.0002 |  | — | 
2 | Cc1ccccc1CCNS(=O)(=O)c1c(Cl)cc(Br)cc1Cl [Example 17, 4-bromo-2,6-dichloro-N-[2-(2-methylphenyl)ethyl]benzene-1-sulfonamide] | 6.57 | — | — | 3 to 4 | 2 to 3 | 0.0002 | 0.0004 |  | — | 6.57
3 | O=S(=O)(NCCc1ccccc1Cl)c1c(Cl)cc(C2CC2)cc1Cl [Example 26, 2,6-dichloro-N-[2-(2-chlorophenyl)ethyl]-4-cyclopropylbenzene-1-sulfonamide] | 6.44 | — | — |  |  |  |  |  | — | 6.44
4 | Cc1ccccc1CCNS(=O)(=O)c1c(C)cccc1Cl [Example 11, 2-chloro-6-methyl-N-[2-(2-methylphenyl)ethyl]benzene-1-sulfonamide] | 5.62 | — | — |  |  |  |  |  | — | 5.62

Second part, led by results:

Row | pIC50 (hNox4; read-out: IC50 Nox4) | IC50 Nox1 (Nox1) | IC50 DPPH (DPPH redox assay) | half-life at 1 μM [1] [min] | half-life at 1 μM [2] [min] | fraction unbound at 4 h, 10 μM [3] | fraction unbound at 4 h, 10 μM [4] | pIC50 (Nox2) | Compound | IC50 Nox2 (Nox2) | pIC50 (hNox4; [5])
5 | 5.80 | — | — | 14 | 1 | 0.03 | 0.017 | 6.00 | COc1cc(C)c(S(=O)(=O)NCCc2ccccc2O)c(C)c1 [Example 47, N-[2-(2-hydroxyphenyl)ethyl]-4-methoxy-2,6-dimethyl-benzenesulfonamide] |  | 
6 | 6.52 | — | — | 2 | 2 | 0.0026 | 0.0021 |  | COc1cc(C)c(S(=O)(=O)NCCc2ccccc2Cl)c(C)c1 [Example 46, N-[2-(2-chlorophenyl)ethyl]-4-methoxy-2,6-dimethyl-benzenesulfonamide] | — | 
7 | 4.66 | — | — | 69 | 16 | 0.011 | 0.005 | 6.06 | Cc1cc(O)cc(C)c1S(=O)(=O)NCCc1ccccc1O [Example 48, 4-hydroxy-N-[2-(2-hydroxyphenyl)ethyl]-2,6-dimethyl-benzenesulfonamide] |  | 
8 | 6.52 | — | — | 9 to 11 | 2 to 4 | 0.0062 | 0.0056 | 5.82 | O=S(=O)(NCCc1ccccc1O)c1c(Cl)cc(Br)cc1Cl [Example 38, 4-bromo-2,6-dichloro-N-[2-(2-hydroxyphenyl)ethyl]benzenesulfonamide] |  | 
9 | 5.62 | — | — | 36 | 7 | 0.015 | 0.025 | 6.05 | Cc1cc(Cl)c(S(=O)(=O)NCCc2ccccc2O)c(C)c1O [Example 44, 6-chloro-3-hydroxy-N-[2-(2-hydroxyphenyl)ethyl]-2,4-dimethyl-benzenesulfonamide] |  | 
10 | 6.10 | — | — | 6 to 10 | 2 to 4 | 0.011 | 0.0056 | 6.05 | Cc1cc(C)c(S(=O)(=O)NCCc2ccccc2O)c(C)c1 [Example 37, N-[2-(2-hydroxyphenyl)ethyl]-2,4,6-trimethylbenzene-1-sulfonamide] |  | 
